Common to all, as to type: cell-based
The test system of test [1] is colistin resistant MCR (−) E. Coli strains. The test can be described thus: Synergy study: colistin MIC in the presence of compound. Summed up: (§1)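 CLSI broth microdilution with colistin and LC compound added in equal amounts, 2-fold serial dilution, alone or combined at fixed synergy concentration. MIC taken as lowest concentration with no visible growth after 24 hours of incubation.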

The subject of test [2] is colistin resistant MCR (+) E. Coli strains. Described as above. Summed up:
as §1

Test [3] relates to colistin resistant MCR (−) E. Cloacae strain 7023456439. Described as above. The settings on record: strain 7023456439 E. Cloacae. Summed up: as §1
The subject of test [4] is colistin resistant MCR (−) E. Coli strains. The experiment in a line: MIC, broth microdilution, compound alone. In short, it runs like this:
(§2)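 Modified CLSI broth microdilution; inoculum from 18–20 h TSA colonies adjusted to 0.5 McFarland, ~5×10^5 CFU/mL per well. Plates incubated 24 h at 35 °C; turbidity may be read at OD600. MIC defined as concentration giving 99% inhibition.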

The test system of test [5] is colistin resistant MCR (+) E. Coli strains. The test can be described thus: MIC, broth microdilution, compound alone. Conditions: compound alone. Summed up: as §2
For test [6], the system named is colistin resistant MCR (−) E. Cloacae strain 7023456439. The experiment in a line: MIC, broth microdilution, compound alone. Conditions: strain 7023456439 E. Cloacae. In short, it runs like this: as §2
[7] abbreviates: strain 6083672926, MCR(−), compound at 5 μg (Table 2a: 5 ug/ml).
The mark [8] stands for this setting: strain 7023446108, MCR(−), compound at 5 μg (Table 2a: 5 ug/ml).
The mark [9] stands for this setting: strain 7033607097, MCR(−), compound at 5 μg (Table 2a: 5 ug/ml).
Where [10] appears, read: strain 6075066346, MCR(+), compound at 5 μg (Table 2a: 5 ug/ml).
Setting [11] is: compound at 5 μg (Table 2a: 5 ug/ml).
[12] abbreviates: strain 6083672926, MCR(−), compound at 10 μg (Table 2a: 10 ug/ml).
Setting [13] is: strain 7023446108, MCR(−), compound at 10 μg (Table 2a: 10 ug/ml).
Where [14] appears, read: strain 7033607097, MCR(−), compound at 10 μg (Table 2a: 10 ug/ml).
Where [15] appears, read: strain 6083655967, MCR(+), compound at 10 μg (Table 2a: 10 ug/ml).
Where [16] appears, read: strain 7023444207, MCR(+), compound at 10 μg (Table 2a: 10 ug/ml).
[17] abbreviates: compound at 10 μg (Table 2a: 10 ug/ml).

In brackets after ≈: the same amount, converted by molar mass. Where two headings read alike, the source gives them in different places.

For `CN(C)CCCN(C)CCCCOc1ccc(C2COc3c(ccc4c3C=CC(C)(C)O4)C2)c(OCCCCN(C)CCCN(C)C)c1` (stereo not drawn) [LC096], the “Colistin MIC in the presence of the compound” value (“Colistin MIC in the presence” for short) in test [1] (setting [7]) was <0.195 µg/mL; in test [1] (setting [8]), <0.195 µg/mL; in test [1] (setting [9]) it was <0.195 µg/mL; in test [2] (setting [10]), <0.195 µg/mL; in test [2] (strain 6083655967, MCR(+), compound at 5 μg (Table 2a: 5 ug/ml)) it was <0.195 µg/mL; in test [2] (strain 6103645107, MCR(+), compound at 5 μg (Table 2a: 5 ug/ml)), <0.195 µg/mL. For the same molecule, the “Colistin MIC in the presence” value in test [2] (strain 6123520276, MCR(+), compound at 5 μg (Table 2a: 5 ug/ml)) is <0.195 µg/mL; in test [2] (strain 7013177695, MCR(+), compound at 5 μg (Table 2a: 5 ug/ml)), <0.195 µg/mL; in test [2] (strain 7023436560, MCR(+), compound at 5 μg (Table 2a: 5 ug/ml)), <0.195 µg/mL; in test [2] (strain 7023444207, MCR(+), compound at 5 μg (Table 2a: 5 ug/ml)), <0.195 µg/mL; in test [3] (setting [11]), >25 µg/mL. Moreover, the minimal inhibitory concentration (MIC) stood at 12.5 µg/mL (≈ 18.8 µM) in test [4] (strain 6083672926, MCR (−)); 25 µg/mL (≈ 37.6 µM) in test [4] (strain 7023446108, MCR (−)); 12.5 µg/mL (≈ 18.8 µM) in test [4] (strain 7033607097, MCR (−)); 25 µg/mL (≈ 37.6 µM) in test [5] (strain 6075066346, MCR (+)); 25 µg/mL (≈ 37.6 µM) in test [5] (strain 6083655967, MCR (+)); 12.5 µg/mL (≈ 18.8 µM) in test [5] (strain 6103645107, MCR (+)). In addition, the MIC in test [5] (strain 6123520276, MCR (+)) is 25 µg/mL (≈ 37.6 µM); in test [5] (strain 7013177695, MCR (+)) it was 25 µg/mL (≈ 37.6 µM); in test [5] (strain 7023436560, MCR (+)), 25 µg/mL (≈ 37.6 µM); in test [5] (strain 7023444207, MCR (+)), 25 µg/mL (≈ 37.6 µM); in test [6] it was >25 µg/mL.

For the molecule `O=C(C=Cc1ccc(OCCCCN2CCNCCNCCNCC2)cc1)c1ccc(OCCCCN2CCNCCNCCNCC2)cc1O.[Cl][Zn][Cl].[Cl][Zn][Cl]` [LC304], the “Colistin MIC in the presence” value amounted to 12.5 µg/mL in test [1] (setting [7]); 12.5 µg/mL in test [1] (setting [12]); 3.125 µg/mL in test [1] (setting [8]); 3.125 µg/mL in test [1] (setting [13]); 3.125 µg/mL in test [1] (setting [9]); 3.125 µg/mL in test [1] (setting [14]). The “Colistin MIC in the presence” value in test [2] (setting [15]) is 1.56 µg/mL; in test [2] (setting [16]), 1.56 µg/mL; in test [3] (setting [11]) it was >12.5 µg/mL; in test [3] (setting [17]), >12.5 µg/mL. The MIC is >50 µg/mL in test [4] (strain 6083672926, MCR (−)); >50 µg/mL in test [4] (strain 7023446108, MCR (−)); >50 µg/mL in test [4] (strain 7033607097, MCR (−)); >50 µg/mL in test [5] (strain 6075066346, MCR (+)); >50 µg/mL in test [5] (strain 6083655967, MCR (+)); >50 µg/mL in test [5] (strain 6103645107, MCR (+)). For the same molecule, the minimal inhibitory concentration (MIC) in test [5] (strain 6123520276, MCR (+)) was >50 µg/mL; in test [5] (strain 7013177695, MCR (+)), >50 µg/mL; in test [5] (strain 7023436560, MCR (+)), >50 µg/mL; in test [5] (strain 7028444207 (Table 1b), MCR (+)) it was >50 µg/mL; in test [6] it was >50 µg/mL.

Regarding `O=C(O)CN(CCN(CC(=O)O)CC(=O)O)CC(=O)O` [EDTA, Ethylenediaminetetraacetic acid, reference compound], the “Colistin MIC in the presence” value stood at 0.78 µg/mL in test [1] (strain 6083672926, MCR(−), compound at 250 ug/ml); 0.39 µg/mL in test [1] (strain 7023446108, MCR(−), compound at 250 ug/ml); 0.195 µg/mL in test [1] (strain 7033607097, MCR(−), compound at 250 ug/ml); 0.78 µg/mL in test [2] (strain 6083655967, MCR(+), compound at 250 ug/ml); 0.39 µg/mL in test [2] (strain 6103645107, MCR(+), compound at 250 ug/ml); 0.78 µg/mL in test [2] (strain 6123520276, MCR(+), compound at 250 ug/ml). Moreover, the “Colistin MIC in the presence” value was 0.78 µg/mL in test [2] (strain 7013177695, MCR(+), compound at 250 ug/ml); 0.39 µg/mL in test [2] (strain 7023436560, MCR(+), compound at 250 ug/ml); 3.125 µg/mL in test [3] (compound at 250 ug/ml). Also, in test [2] (against mcr-1 bacteria), the “concentration at which the compound shows synergy with colistin” value is listed as “higher than 250 μg/ml”. For the same molecule, the MIC was > 250 µg/mL in test [4] (Escherichia coli, strain 7023446108, MCR (−), read-out: MIC); >250 µg/mL in test [4] (strain 6083672926, MCR (−)); >250 µg/mL in test [4] (strain 7033607097, MCR (−)); > 250 µg/mL in test [5] (Escherichia coli, strain 6075066346, MCR (+), read-out: MIC); >250 µg/mL in test [5] (strain 6083655967, MCR (+)); >250 µg/mL in test [5] (strain 6103645107, MCR (+)). Moreover, the MIC in test [5] (strain 6123520276, MCR (+)) is >250 µg/mL; in test [5] (strain 7013177695, MCR (+)), >250 µg/mL; in test [5] (strain 7023436560, MCR (+)), >250 µg/mL; in test [5] (strain 7023444207, MCR (+)), >250 µg/mL; in test [6] (Enterobacter cloacae, read-out: MIC), > 250 µg/mL.

`CC1(C)C=Cc2c(ccc3c2OCC(c2ccc(OCCCCC[N+](C)(C)C)cc2OCCCCC[N+](C)(C)C)C3)O1` (stereo not drawn) [LC316]: the “Colistin MIC in the presence” value in test [1] (setting [7]) was 6.25 µg/mL; in test [1] (setting [8]), 1.56 µg/mL; in test [1] (setting [9]), 1.56 µg/mL; in test [2] (setting [10]), 1.55 µg/mL; in test [3] (setting [11]), >12.5 µg/mL. Besides, the minimum inhibitory concentration (MIC) in test [4] (strain 6083672926, MCR (−)) is >50 µg/mL; in test [4] (strain 7023446108, MCR (−)), 50 µg/mL; in test [4] (strain 7033607097, MCR (−)) it was >50 µg/mL; in test [5] (strain 6075066346, MCR (+)), 50 µg/mL; in test [5] (strain 6083655967, MCR (+)), 50 µg/mL; in test [5] (strain 6103645107, MCR (+)), 50 µg/mL. For the same molecule, the minimal inhibitory concentration (MIC) is 50 µg/mL in test [5] (strain 6123520276, MCR (+)); 50 µg/mL in test [5] (strain 7013177695, MCR (+)); 50 µg/mL in test [5] (strain 7023436560, MCR (+)); 50 µg/mL in test [5] (strain 7023444207, MCR (+)); >50 µg/mL in test [6].

Consider `CC1(C)C=Cc2c(ccc3c2OCC(c2ccc(OCCCC[n+]4ccccc4)cc2OCCCC[n+]2ccccc2)C3)O1` (stereo not drawn) [LC370], for which the “Colistin MIC in the presence” value in test [1] (setting [12]) was >12.5 µg/mL; in test [1] (setting [13]) it was 0.195 µg/mL; in test [1] (setting [14]), 0.195 µg/mL; in test [2] (strain 6075066346, MCR(+), compound at 10 μg (Table 2a: 10 ug/ml)) it was 0.195 µg/mL; in test [2] (setting [15]), 0.39 µg/mL; in test [2] (strain 6103645107, MCR(+), compound at 10 μg (Table 2a: 10 ug/ml)), 0.195 µg/mL. For the same molecule, the “Colistin MIC in the presence” value in test [2] (strain 6123520276, MCR(+), compound at 10 μg (Table 2a: 10 ug/ml)) was 0.195 µg/mL; in test [2] (strain 7013177695, MCR(+), compound at 10 μg (Table 2a: 10 ug/ml)), 0.195 µg/mL; in test [2] (strain 7023436560, MCR(+), compound at 10 μg (Table 2a: 10 ug/ml)), 0.195 µg/mL; in test [2] (setting [16]) it was 0.195 µg/mL; in test [3] (setting [17]), >12.5 µg/mL. Moreover, the MIC was 25 µg/mL in test [4] (strain 6083672926, MCR (−)); 25 µg/mL in test [4] (strain 7023446108, MCR (−)); 25 µg/mL in test [4] (strain 7033607097, MCR (−)); 50 µg/mL in test [5] (strain 6075066346, MCR (+)); 50 µg/mL in test [5] (strain 6083655967, MCR (+)); 50 µg/mL in test [5] (strain 6103645107, MCR (+)). Further, the MIC in test [5] (strain 6123520276, MCR (+)) was 50 µg/mL; in test [5] (strain 7013177695, MCR (+)) it was 50 µg/mL; in test [5] (strain 7023436560, MCR (+)), 50 µg/mL; in test [5] (strain 7023444207, MCR (+)) it was 50 µg/mL; in test [6], >50 µg/mL.

For the origin of these results see patent publication US12473250B2, “Molecular design of new antibiotics and antibiotic adjuvants against MCR strains” (priority 2019, dated 2025).
